Like-named read-outs stand apart in the source and are kept apart here. One block for each compound: values may come before it.
Legend:
PKC [1] = conditions: read-out: affinity for PKC, ECS50; cited from earlier work
PKC [2] = test: PKC activity time course in rat H19-7/IGF-IR hippocampal cells; assay type: cell-based
Description: (§1) Cell culture. Rat hippocampal H19-71GF-IR cells (ATCC, Manassas, Va.) were plated onto poly-L-lysine coated plates and grown at 35° C. in DMEM/10% FCS for several days until about 50% coverage was obtained. The cells were then induced to differentiate into a neuronal phenotype by replacing the medium with 5 ml N2 medium containing 10 ng/ml basic fibroblast growth factor at 39° C. and grown in T-75 flasks at 37° C. Human SH-SY5Y neuroblastoma cells (ATCC) were cultured in 45% F12K/45% MEM/10% FCS. Mouse N2A neuroblastoma cells were cultured in DMEM/10% FCS without glutamine. Rat hippocampal neurons from 18-day-old embryonic
(§2) Protein kinase C assay. Rat hippocampal cells were cultured and scraped in 0.2 ml homogenization buffer (20 triM Tris-HCl, pH 7.4, 50 mM NaF, 1 μg/ml leupeptin, and 0.1 mM PMSF) and homogenized by sonication in a Marsonix micro-probe sonicator (5 see, 10W). To measure PKC, 10 ul of cell homogenate or purified. PKC isozyme (purchased from Calbiochem) was incubated for 15 min at 37° C. in the presence of 10 μM histones, 4.89 mM CaCl2, 1.2 μg/μl phosphatidyl-L-serine, 0.18 μg/μl 1,2-dioctanoyl-sn-glycerol, 10 mM MgCl2, 20 mM HEPES (pH 7.4), 0.8 mM EDTA, 4 mM EGTA, 4% glycerol, 8 μg/ml aprotinin, 8 μg/ml leupeptin, and 2 mM benzamidine. 0.5 μCi [^γ-32P]ATP was added and ^32P-phosphoprotein formation was measured by adsorption onto phosphocellulose as described previously. Nelson and Alkon, J. Neurochemistry. 1995; 65: 2350-57. For measurements of activation by BR-101 (DCP-LA) and similar compounds, PKC activity was measured in the absence of diacylglycerol and phosphatidyl serine, as described by Kanno et al., and PKC δ, ε, η, and μ were measured in the absence of added EGTA and CaCl2, as described by Kanno et al., J. Lipid Res. 2006; 47: 1146-50. Low concentrations of Ca^2+ are used because high Ca^2+ interacts with the PKC phosphatidylserine binding site and prevents activation. For measurements of bryostatin activation, 1,2-diacylglycerol was omitted unless otherwise stated.

PKCε = molecular target: T1, PKCε (Homo sapiens, UniProt Q02156); test: Protein kinase C assay, purified/recombinant PKC epsilon (32P incorporation into histones); assay type: biochemical; conditions: for activation of purified PKCε / concentration needed to activate PKC, times lower than for BR-101 (DCP-LA): FIG. 3
T1 construct: purchased Calbiochem
T1 sequence (Q02156 1-737): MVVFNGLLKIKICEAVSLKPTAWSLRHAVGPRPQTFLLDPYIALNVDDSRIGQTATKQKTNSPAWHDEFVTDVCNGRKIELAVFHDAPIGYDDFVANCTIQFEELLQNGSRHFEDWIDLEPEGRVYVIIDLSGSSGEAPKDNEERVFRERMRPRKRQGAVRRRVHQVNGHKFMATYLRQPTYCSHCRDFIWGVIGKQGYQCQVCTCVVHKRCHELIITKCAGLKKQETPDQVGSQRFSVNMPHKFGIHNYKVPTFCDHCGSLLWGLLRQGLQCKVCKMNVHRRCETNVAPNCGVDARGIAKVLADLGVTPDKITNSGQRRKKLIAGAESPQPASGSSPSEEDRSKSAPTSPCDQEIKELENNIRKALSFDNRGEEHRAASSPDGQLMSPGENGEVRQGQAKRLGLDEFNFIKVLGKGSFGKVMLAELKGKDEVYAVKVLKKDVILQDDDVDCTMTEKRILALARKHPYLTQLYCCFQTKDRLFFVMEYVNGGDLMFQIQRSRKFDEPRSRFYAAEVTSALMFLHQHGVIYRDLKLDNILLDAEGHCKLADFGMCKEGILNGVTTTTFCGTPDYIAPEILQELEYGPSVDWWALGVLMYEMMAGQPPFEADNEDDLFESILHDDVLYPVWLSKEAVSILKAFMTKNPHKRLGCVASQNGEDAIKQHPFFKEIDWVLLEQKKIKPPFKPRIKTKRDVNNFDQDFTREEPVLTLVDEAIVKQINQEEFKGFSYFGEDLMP
Description: Protein kinase C assay. Recombinant PKC (1 ng of alpha or epsilon isofonn) was mixed with the BR-101 (UCP-LA) in the presence of 10 micromoiar histones, 5 mM CaCl2, 1.2 μg/μl phosphatidyl-L-serine, 0.18 μg/μl 1,2-dioctanoyl-sn-glycerol (DAG), […], […] (pH 7.4), 0.8 tnIVI EDTA, 4 mM EGTA, 4% glycerol, 8 μg/ml aprotinin, 8 μ/ml leupeptin, and 2 mM benzamidine. 0.5 micro Ci [^y32P]ATP was added. The incubation mixture was incubated for 15 min at 37 degrees in a total volume of 10 microliters. The reaction was stopped by spotting the reaction mixtures on 1×2 cm strips of cellulose phosphate paper (Whatman P81) and immediately washing twice for 1 hr in 0.5% H3PO4. The cellulose phosphate strips were counted in a scintillation counter. In some experiments, phosphatidylserine, diacylglycerol, and/or calcium were removed.
as §2
To determine their PKC isozyme specificity, the new compounds were preincubated with purified PKC for five minutes and the PKC activity was measured radiometrically.

[3] = tested on: SH-SY5Y neuroblastoma cells; test: Cell survival and proliferation (alamar Blue, CyQuant) in SH-SY5Y neuroblastoma cells; assay type: cell-based, human; conditions: alamar Blue; FIG. 11a
Description: (§3) AB Measurement and Cell Viability Assay. Aβ was measured using an Aβ1-42 human fluorimetric ELISA kit (Invitrogen) according to the manufacturer's instructions. Results were measured in a Biotek Synergy HT microplate reader. AlamarBlue and CyQuant NF (Invitrogen) according to the manufacturer's instructions.

TACE [4] = test: TACE assay in rat primary neurons; assay type: cell-based; conditions: primary neurons from rat hippocampus; FIGS. 9b, c
Description: (§4) TACE Assay. TACE was measured by incubating 5 μl cell homogenate, 3 μl buffer (50 mM Tris-HCl 7.4 plus 25 mM NaCl plus 4% glycerol), and 1 of 100 μM TACE substrate IV (Aβz-LAQAVRSSSR-DPa) (Calbiochem) for 20 min at 37° in 1.5-ml polypropylene centrifuge tubes (Jin et al., Anal Biochem. 2002; 302: 269-75). The reaction was stopped by cooling to 4° C. The samples were diluted to 1 ml and the fluorescence was rapidly measured (ex=320 nm, em=420 nm) in a Spex Fluorolog 2 spectrofluorometer.

TACE [5] = test: TACE assay in N2a mouse neuroblastoma cells; assay type: cell-based; conditions: FIG. 9a
Description: as §4

rats = conditions: cited from earlier work
a-secretase = conditions: human fibroblasts, cited from earlier work
Aβ = Aβ levels in N2a neuroblastoma cells transfected with human APPSwe/PSID (Aβ1-42 ELISA); assay type: cell-based, mouse; conditions: 24 h incubation, various concentrations
Description: as §1, §3
To measure the effects of PKCε activation on Aβ production, we used mouse neuro2a (N2a) neuroblastoma cells transfected with human APPSwe/PSID, which produce large quantities of Aβ. Petanceska et al., J Neurochem. 1996; 74: 1878-84. […] With bryostatin, which activates PKC by binding to the diacylglycerol-binding site, the inhibition was biphasic, with concentrations of 20 nM or higher producing no net effect. This may be explained by the ability of this class of PKC activators to downregulate PKC when used at high concentrations.

[6] = tested on: Endothelin-converting enzyme (ECE); test: ECE assay in SH-SY5Y neuroblastoma cells; assay type: cell-based, human; conditions: bryostatin 0.27 nM, BR-101 1 μM, BR-111 1 μM; FIG. 10
Description: ECE assay. SH-S757 neuroblastoma cells were incubated with bryostatin (0.27 nM), BR-101 (PCP-LA) (1 μM), and BR-111 (DHA-CP6) (1 μM). Endothelin-converting enzyme (ECE) was measured fluorimetrically using the method of Johnson and Ahn, Anal. Biochem. 2000; 286: 112-118. A sample of cell homogenate (20 μl) was incubated in 50 mM MES-KOH, pH 6.0, 0.01% C12E10 (polyoxyethylene-10-tauryl ether), and 15 μM McaBK2. (7-Methoxycournarin-4-acetyl [Ala7-(2,4-Dinitrophenyl)Lys9]-bradykinin trifluoroacetate salt) (Sigma-Aldrich). After 60 min at 37° C., the reaction was quenched by adding trifluoroacetic acid to 0.5%. The sample was diluted to 1.4 ml with water and the fluorescence was measured at ex=334 nm, em=398 nm.

Compound: CCCCCCCCCCCCCC(=O)O[C@@H]1[C@@H](C)[C@@]2(O)[C@@H](C=C(CO)C[C@]3(O)C(=O)C(C)=C[C@@H]23)[C@@H]2C(C)(C)[C@]12OC(C)=O [phorbol 12-myristate 13-acetate]
PKC activity (downregulation) at 8 h (PKC [2]; data not shown): strongly downregulated

Compound: CCC1CC1CC1CC1CC1CC1CCCCCCCCO (stereo not drawn) [BR-104, linolenic alcohol tricyclopropane]
effect on PKC (PKCε; FIG. 4): little or no effect

Compound: CCC/C=C/C=C/C(=O)O[C@H]1/C(=C/C(=O)OC)C[C@H]2C[C@H]([C@@H](C)O)OC(=O)C[C@H](O)C[C@@H]3C[C@H](OC(C)=O)C(C)(C)[C@](O)(C[C@@H]4C/C(=C/C(=O)OC)C[C@H](/C=C/C(C)(C)[C@]1(O)O2)O4)O3 [bryostatin]
effect on cell survival [3]: no effect
TACE activity (TACE [4]): small increases
TACE activity (TACE [5]): small increases
downregulation of PKC following activation (PKC [2]; 0.04 nM and 0.2 nM): 20%
time by which PKC downregulation returned to baseline (PKC [2]; 0.04 nM and 0.2 nM): ≤ 24 h
activation of PKC (PKC [2]; 0.04 nM and 0.2 nM, data not shown): 2 fold
PKC activity (downregulation) at 8 h (PKC [2]; data not shown): at or near the baseline
rate of learning (rats): dramatically increase the rate of learning
increase in initial rate of a-secretase activity (a-secretase; 10 pM): 16 fold
increase in initial rate of a-secretase activity (a-secretase; 100 pM): 132 fold
levels of intracellular Aβ (Aβ; FIG. 7a): markedly reduced
levels of secreted Aβ (Aβ; FIG. 7b): markedly reduced
ECE activity [6]: sustained increase

Compound: CCCCCC1OC1C/C=C\CCCCCCCC(=O)OC (stereo in doubt) [BR-117, vernolic acid methyl ester]
effect on PKC (PKCε; FIG. 4): little or no effect

More lines, main results first:

effect on PKCε (PKCε; at concentrations above 1 μM, FIG. 4): inhibited
Compound: CCCCC[C@H]1O[C@H]1CC1CC1CCCCCCCC(=O)OC (stereo partly drawn) [BR-109, vernolic acid methyl ester cyclopropane]

effect on PKC (PKCε; FIG. 4): little or no effect
Compound: epoxystearic acid [BR-116]

concentration needed to activate PKC, times lower than for BR-101 (DCP-LA) (PKCε): approx. 100 times
Compound: CCCCCC1CC1CC1CC1CC1CC1CC1CC1CCCC(=O)OC (stereo not drawn) [BR-115]
activation of purified PKCε (PKCε): activated purified PKCε to a similar extent

effect on PKC (PKCε; FIG. 4): little or no effect
Compound: CCCCCC1CC1CC1CC1CCCCCCCCO (stereo not drawn) [BR-105, linoleic alcohol dicyclopropane]

concentration needed to activate PKC, times lower than for BR-101 (DCP-LA) (PKCε): approx. 100 times
Compound: CCC1CC1CC1CC1CC1CC1CC1CC1CC1CC1CCCC(=O)OC (stereo not drawn) [BR-114]
activation of purified PKCε (PKCε): activated purified PKCε to a similar extent
